The results in this text go back to the METLIN SMRT retention time set (Domingo-Almenara et al. 2019).

This series is described as follows: gradient 5% acetonitrile 3 min, to 50% in 2 min, to 85% in 15 min, held 3 min, 100 µL/min. Conditions: column: Zorbax Extend-C18 2.1 x 50 mm; eluents: water / acetonitrile, 0.1% formic acid. An outline of the steps: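 Values are retention times taken from adduct peaks that software picked and an analyst inspected. The pure standards were run as mixtures of ~100 molecules on HPLC linked to a quadrupole time-of-flight mass spectrometer, in positive and negative ionization mode. A Zorbax Extend-C18 column (2.1 × 50 mm, 1.8 μm) was used at 100 μL/min with water and acetonitrile, each including 0.1% formic acid.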
With `Cn1nc(CN(C(=O)c2ccc(F)cc2)c2ccccc2)c2c1CCN(S(C)(=O)=O)C2`, the RP-LC retention time is 721 s.
The compound `CCOC(=O)c1c(S(=O)(=O)N2CCC(C(=O)Nc3ccc(F)cc3C)CC2)c(C)n(CC)c1C` returned an RP-LC retention time of 885 s.
In the case of `Cc1ccc(S(=O)(=O)N2CCc3c(c(-c4nnc(-c5ccccc5F)o4)nn3C)C2)cc1Cl` it was 1040 s; in that of `COCCC1CCN(C(=O)CN(C)C(=O)c2ccnn2C)CC1`, 586 s.
Regarding `O=C(NCc1ccccn1)C(=O)NCC1OCCN1C(=O)c1ccc2c(c1)OCO2` (configuration not stated), the RP-LC retention time worked out at 563 s.
The compound `CN1C(=O)CCc2cc(NC(=O)c3ccoc3)ccc21` registered an RP-LC retention time of 653 s.
On to `COc1ccc(CC(=O)NC2CCN(c3cc(-c4ccc(F)cc4)[nH]n3)C2)cc1OC` (configuration not stated), for which the RP-LC retention time came out at 670 s.
For the compound `Cc1ccc(-c2n[nH]c3c2CN(S(=O)(=O)c2cn(C)cn2)CC3)cc1`, the RP-LC retention time was found to be 687 s.
`CCN(CC)S(=O)(=O)c1ccc(F)c(-c2nnc(-c3ccccc3Br)o2)c1` had an RP-LC retention time of 1090 s.
In the case of `O=C(c1ccc2[nH]ccc2c1)N1CCN(c2cc(-c3ccccc3)[nH]n2)CC1` it was 728 s; in that of `Cc1sc(C)c(S(=O)(=O)NCc2ccc(N(C)C)cc2)c1-c1cc(C(F)(F)F)on1`, 960 s.
In turn, `CCOC(=O)C1CCCN(Cc2nc3nc(C)cc(N4CCCCCC4)n3n2)C1` (configuration not stated) had an RP-LC retention time of 620 s.
In the case of `COc1ccc(OC)c(NC(=O)N2CC=C(c3cn(C)c4ncccc34)CC2)c1`, the RP-LC retention time was determined as 882 s.
In turn, `Cc1ccc(Nc2c(-c3ccccc3Cl)nc3ccc(Br)cn23)cc1` registered an RP-LC retention time of 1110 s.
In turn, `CC1=C(c2ccc(F)cc2)S(=O)(=O)N=C1N1CCCN(C(=O)c2cccc(F)c2)CC1` registered an RP-LC retention time of 835 s.
In the case of `O=c1ccn(-c2ccc(Cl)cc2)nc1-c1nc(-c2ccc(Br)cc2)no1` it was 1080 s; in that of `CCS(=O)(=O)c1ccc2c(c1)N(Cc1nc(-c3ccc(F)cc3)no1)C(=O)CO2`, 902 s; in that of `CN1C(=O)c2cc(C(=O)NCc3ccccc3)nn2CC1(C)C(=O)NC1CCCCCC1` (configuration not stated), 791 s.
With `CCN1CCC(N(Cc2cccs2)C(=O)Nc2ccccc2C)CC1`, the RP-LC retention time worked out at 646 s.
With `C=CCn1c(=O)c2ccccc2n(Cc2nc(-c3cccc(Cl)c3)no2)c1=O` the figure was 1110 s; with `Cc1cccc(-n2ccnc(SCC(=O)Nc3cc(Cl)ccc3C)c2=O)c1`, 915 s.
With `Cc1ccc(NC(=O)N2CCCC2c2nc(-c3ccc(F)cc3F)no2)cc1C` (configuration not stated) the figure was 1050 s.
Consider `Cc1ccc(CNC(=O)C2(C)Cn3nc(C(=O)NCCCN4CCCCCC4)cc3C(=O)N2C)cc1` (configuration not stated), for which the RP-LC retention time was found to be 617 s.
Turning to `Cc1ccc(NC(=O)CN2C(=O)C3CCCCN3c3ccc(S(=O)(=O)N(C)C)cc32)cc1C` (configuration not stated), the RP-LC retention time is 922 s.
`O=C(COc1ccc(F)cc1)N1CC(Oc2cccc(-c3nc(-c4ccccc4)no3)c2)C1` yielded an RP-LC retention time of 1190 s.
The compound `O=C1NCCOCCN(C(=O)c2nccc3ccccc23)[C@H]2CCC[C@@H]12` displayed an RP-LC retention time of 674 s.
With `Cn1c(=O)n(C)c2cc(S(=O)(=O)c3ccc(F)cc3)c(NC(=O)Cc3ccc(F)cc3)cc21` the figure was 874 s; with `COC(=O)c1ccc(Oc2cc(C)nc(-n3nc(C)cc3C)n2)cc1`, 912 s; with `CCOc1ccccc1-n1nnc(C(=O)OCc2nc(-c3ccccc3)oc2C)c1C`, 1090 s.
With `O=c1c2cc(-c3cccs3)nn2cnn1Cc1nc(-c2ccc(Cl)cc2)no1`, the RP-LC retention time was determined as 1150 s.
Consider `CCOCCCNC(=O)CN1C(=O)C2CCCCN2c2ccc(S(=O)(=O)N3CCCC3)cc21` (configuration not stated), for which the RP-LC retention time is 819 s.
In turn, `Cc1oc(-c2ccc(NC(=O)CC(C)(C)C)cc2)nc1Cn1cccn1` yielded an RP-LC retention time of 883 s.
With `CCCN1CCN(c2cc(C(=O)O)c3cc(NC(=O)c4ccccc4F)ccc3n2)CC1` the figure was 601 s; with `O=C(Nc1cn(-c2ccc(C(=O)N3CCN(c4ccccc4)CC3)cc2)cn1)C1CC1`, 728 s.
The compound `CCN1CCN(CCCNC(=O)c2nc(-c3oc4ccccc4c3C)no2)CC1` showed an RP-LC retention time of 621 s.
In the case of `O=C(NCCc1ccsc1)C(=O)NCC(F)(F)F` it was 756 s; in that of `CCn1cc(CN2CCC(C(=O)NCCCc3ccccc3)CC2)c2cc(OC)ccc21`, 765 s; in that of `O=C(Nc1ccc(F)cc1)N1CCC(N2CCN(Cc3ccccc3)C2=O)CC1`, 794 s.
In the case of `CCOC(=O)c1c(C)oc2nc(C)nc(NCCCN3CCN(c4ccccc4OC)CC3)c12` it was 596 s.
For the compound `O=C(Nc1ccc(OCc2nnc(-c3ccccc3)o2)cc1)c1cccnc1`, the RP-LC retention time worked out at 743 s.
As to `COc1cccc(C2Cn3nnc(-c4nc(-c5ccc(OC(C)C)cc5)no4)c3CO2)c1` (configuration not stated), the RP-LC retention time amounted to 1250 s.
As for `CC(C)(C)C(=O)N1CCOC(c2ccccc2)C1` (configuration not stated), the RP-LC retention time is 831 s.
On to `O=C(c1ccc(C(F)(F)F)cc1)N1CCc2nc(-c3ccc(F)cc3)ncc2C1`, for which the RP-LC retention time was determined as 1080 s.
`CCN1CCN(S(=O)(=O)c2ccc(/C=C\c3onc(C)c3NC(=O)C3CC3)cc2)CC1` returned an RP-LC retention time of 639 s.
`Cc1ccc(NC(=O)N2CCC(c3nc(C(=O)N4CCCC4)c(C)o3)CC2)cc1`: the RP-LC retention time is 759 s.
With `Cc1[nH]c2ccccc2c1C(=O)C(=O)NCC1COc2ccccc2O1` (configuration not stated) the figure was 832 s; with `Cc1cccc(NC(=O)Nc2nccn(-c3cccc(Cl)c3)c2=O)c1`, 1040 s.
`COc1ccc(N2CCN(c3ncc(S(=O)(=O)c4ccccc4)c(N)n3)CC2)cc1` yielded an RP-LC retention time of 848 s.
With `Fc1ccc(Cc2nc(-c3ccnc(N4CCCC4)c3)no2)cc1` the figure was 708 s.
Compound `Cc1ccc(NC(=O)c2nc(C)oc2C)c(F)c1` had an RP-LC retention time of 946 s.
Compound `CCc1ccc(OCC(=O)OCCNC(=O)c2ccncc2)cc1` had an RP-LC retention time of 673 s.
On to `Cc1ccc(NC(=O)N2CCCC(Cn3c(C4CC4)nc4cccnc43)C2)cc1` (configuration not stated), for which the RP-LC retention time came out at 685 s.
As to `NC(=O)C1CCN(C(=O)CN2c3ccccc3NC3=C(C(=O)CCC3)C2c2cccs2)CC1` (configuration not stated), the RP-LC retention time is 630 s.
Compound `CC(C)Cn1nc(CNC(=O)c2cnccn2)c2ccccc21` had an RP-LC retention time of 826 s.
`COCCC1(NS(C)(=O)=O)CCN(C(=O)C2(c3ccc(OC)cc3)CC2)CC1`: the RP-LC retention time was determined as 710 s.
With `CCCCC(=O)N1c2nc(-c3ccc(F)cc3)nn2C2(CCCCC2)[C@@H]2CCCC[C@@H]21` the figure was 1210 s; with `O=C(Nc1cccc(F)c1)C1CCN(C(=O)c2ncn3c2COC(c2ccccc2)C3)CC1` (configuration not stated), 921 s; with `COc1ccc(-c2cc(N3CCC(NC(=O)c4ccc(N(C)C)cc4)C3)n[nH]2)cc1` (configuration not stated), 702 s.
`CCC(C)NC(=O)CN1c2ccc(F)cc2-c2ccccc2S1(=O)=O` (configuration not stated) registered an RP-LC retention time of 870 s.
`CN(C)C(=O)c1n[nH]c2c1CN(C(=O)c1cccc(C(F)(F)F)c1)CC2`: the RP-LC retention time was 673 s.
In the case of `CC(C)Cc1noc(C2(F)CCN(S(=O)(=O)c3ccc(F)cc3F)CC2)n1`, the RP-LC retention time came to 1150 s.
The compound `O=C(c1cccc(F)c1)N1CCN(c2ccc(=O)n(-c3ccc(Cl)cc3)n2)CC1` returned an RP-LC retention time of 871 s.
Compound `CN(C)c1cc(N2CCCC(NC(=O)Cc3ccsc3)C2)ncn1` (configuration not stated) had an RP-LC retention time of 870 s.
With `CCOc1ccccc1-n1ccn(Cc2nc(-c3ccc(C)cc3)no2)c(=O)c1=O` the figure was 920 s; with `CCCS(=O)(=O)N1CC(=O)N(c2cccc(F)c2)C(C)(C(=O)NC2CCCCCC2)C1` (configuration not stated), 956 s.
`CC(C(=O)NCCCN1CCCCC1)n1ccc2cc(S(=O)(=O)N3CCCCCC3)ccc21` (configuration not stated): the RP-LC retention time came out at 707 s.
With `Cc1ccc(-c2ccc(=O)n(Cc3noc(C(=O)N4CCC(C)CC4)n3)n2)cc1`, the RP-LC retention time was 977 s.
As to `COc1ccc(/C=C/c2ccc3c(c2)OCCO3)cc1O`, the RP-LC retention time came to 868 s.
In the case of `CCOC(=O)COC(=O)c1cn(-c2ccc(F)cc2)c(=O)c2ccccc12` it was 1030 s; in that of `CCc1noc(NC(C)=O)c1-c1ccc(OC)c(S(=O)(=O)Nc2cccc(C(F)(F)F)c2)c1`, 862 s.
`Cn1c(SCc2ccc([N+](=O)[O-])cc2)nnc1-c1ccc2c(c1)OCO2` returned an RP-LC retention time of 721 s.
Turning to `COc1ccc(NC(=O)Cn2c(N3CCCC3)nc(C)cc2=O)cc1`, the RP-LC retention time was 603 s.
In the case of `CCc1ccccc1NS(=O)(=O)c1cc(-c2nc(C(C)(C)C)cs2)cs1` it was 1290 s; in that of `CCc1ccc(C2=C(C)C(N3CCC(NC(=O)C(C)(C)CC)CC3)=NS2(=O)=O)cc1`, 965 s; in that of `CCOc1nc2ccccc2nc1N1CCCC(C(=O)N2CCN(c3ccccc3F)CC2)C1` (configuration not stated), 1330 s.
With `C[C@H]1CN(C(=O)Nc2ccc(F)cc2)C[C@@H]1c1nc(-c2cccnc2)no1`, the RP-LC retention time is 760 s.
Compound `CCc1nc2cc(N3CCCC(C(=O)Nc4ccc(OC)cc4OC)C3)cnc2nc1CC` (configuration not stated) registered an RP-LC retention time of 934 s.
